In patent publication US20060160851A1, “Substituted piperidine carbamates” (Novo Nordisk A/S, priority 2003, published 2006):

Each compound was assayed against T1, hormone sensitive lipase (Homo sapiens, UniProt Q05469) (assay: Assay 3190.1: percent inhibition of hormone sensitive lipase by compound at 10 μM (fluorochrome-labeled triacylglyceride emulsion, HSL_FL)). Conditions: 10 μM sample concentration; % activity relative to non-inhibited sample (no compound); 30 min preincubation at 25° C., 120 min incubation at 37° C.; read-out: Test 3190.1 HSL_FL % ACTIVITY.
T1 construct: made in house
T1 sequence (Q05469 1-1076): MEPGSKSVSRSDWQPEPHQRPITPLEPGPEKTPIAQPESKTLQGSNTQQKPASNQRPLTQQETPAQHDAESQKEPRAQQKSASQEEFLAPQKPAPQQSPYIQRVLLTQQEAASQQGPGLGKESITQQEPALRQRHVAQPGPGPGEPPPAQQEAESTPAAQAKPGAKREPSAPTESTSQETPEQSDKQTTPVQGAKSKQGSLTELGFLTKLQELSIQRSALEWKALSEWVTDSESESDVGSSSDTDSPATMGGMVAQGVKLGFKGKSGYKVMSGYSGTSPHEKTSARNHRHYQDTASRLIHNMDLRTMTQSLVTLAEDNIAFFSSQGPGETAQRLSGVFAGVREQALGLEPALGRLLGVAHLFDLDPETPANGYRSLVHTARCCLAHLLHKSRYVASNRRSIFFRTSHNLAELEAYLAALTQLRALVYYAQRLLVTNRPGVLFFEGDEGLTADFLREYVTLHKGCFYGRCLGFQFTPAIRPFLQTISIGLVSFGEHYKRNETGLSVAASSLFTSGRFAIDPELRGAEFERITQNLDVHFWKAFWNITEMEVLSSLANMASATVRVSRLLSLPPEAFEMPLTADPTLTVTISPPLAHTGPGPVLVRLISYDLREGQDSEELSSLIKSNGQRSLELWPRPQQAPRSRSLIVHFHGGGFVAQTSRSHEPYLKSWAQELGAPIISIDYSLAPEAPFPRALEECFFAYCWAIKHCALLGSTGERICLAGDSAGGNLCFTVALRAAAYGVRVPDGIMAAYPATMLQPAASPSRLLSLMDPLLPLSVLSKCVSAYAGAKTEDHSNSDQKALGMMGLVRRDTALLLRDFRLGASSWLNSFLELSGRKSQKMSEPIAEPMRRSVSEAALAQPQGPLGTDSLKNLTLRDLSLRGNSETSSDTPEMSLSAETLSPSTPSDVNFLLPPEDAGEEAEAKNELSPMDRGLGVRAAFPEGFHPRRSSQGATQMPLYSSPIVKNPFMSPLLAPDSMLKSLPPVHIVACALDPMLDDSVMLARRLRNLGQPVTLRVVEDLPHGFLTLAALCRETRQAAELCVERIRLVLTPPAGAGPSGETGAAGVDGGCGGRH
Type: biochemical
Text: The Hormone-sensitive lipase was provided by Dr. Cecilia Holm, from Lund University Sweden or produced and purified by Novo Nordisk (NN) using the reagents and protocols used by Dr. Holm. The substrates used are: ^3H-labeled triolein (TO) from Amersham, Buckinghamshire, U.K. cat No. TRA191; 5-20 Ci/mmol dissolved in toluene, triolein (Sigma, Cat. No. T-1740), fluorochrome-labeled triacylglyceride (cis-octadec-9-enoic acid 2-[12-(7-nitrobenzo[1,2,5]oxadiazol-4-ylamino)dodecanoyloxy]-1-cis-octadec-9-enoyloxymethyl-ethyl ester) prepared by Novo Nordisk (NN) by conventional methods, and 1,3-(di[^3H]-stearin), 2-(PEG-Biotin)glycerol prepared in collaboration with Amersham Pharmacia Biotech, UK and described in WO 01/073442. Phosphatidyl choline (PC) and phosphatidyl inositol (PI) are from Sigma (St Luis Mo. cat. Nos. P-3556 and P-5954 respectively). All other reagents are of commercial grade and obtained from various commercial sources.
3190.1: Assay for determination of percent inhibition of hormone sensitive lipase by compound at 10 μM sample concentration.
A lipid emulsion with fluorochrome-labeled triacylglyceride and phospholipid is used as substrate with a standard concentration of highly purified HSL (12 μg/mL initial concentration corresponding to 600 ng/mL final concentration). BSA is added as product acceptor receptor. The transfer of the fluorochrome from the lipid phase to the water (BSA) phase changes the fluorescent properties of the fluorochrome. The changes can be monitored on a fluorimeter with an excitation wavelength of 450 nm and an emission wavelength of 545 nm.
Compound and HSL (20 μL compound, 10 μL enzyme and 70 μL PED-BSA buffer) is pre-incubated for 30 min at 25° C. before addition of substrate (100 μL). Amount of formed product is measured after 120 min incubation at 37° C.
Results are given as percent activity relative to a non-inhibited sample (no compound).

activity at 10 µM [%]	Compound
10	O=C(O)Cc1ccc(OC2CCN(C(=O)Oc3ccc(C(=O)NCCc4cccs4)cc3)CC2)cc1 [Example 91, 4-(4-Carboxymethyl-phenoxy)-piperidine-1-carboxylic acid 4-(2-thiophen-2-yl-ethylcarbamoyl)-phenyl ester]
15	O=C(O)Cc1ccc(OC2CCN(C(=O)Oc3ccc(CCOc4ccc(-n5cnnc5)cc4)cc3)CC2)cc1 [Example 97, 4-(4-Carboxymethyl-phenoxy)-piperidine-1-carboxylic acid 4-[2-(4-[1,2,4]triazol-4-yl-phenoxy)-ethyl]-phenyl ester]
11	O=C(O)Cc1ccc(OC2CCN(C(=O)Oc3ccc(Cc4ncc(C(F)(F)F)cc4Cl)cc3)CC2)cc1 [Example 102, 4-(4-Carboxymethyl-phenoxy)-piperidine-1-carboxylic acid 4-(3-chloro-5-trifluoromethyl-pyridin-2-ylmethyl)-phenyl ester]
6	O=C(O)Cc1ccc(OC2CCN(C(=O)Oc3ccc(Oc4ccc(C(F)(F)F)cc4)cc3)CC2)cc1 [Example 103, 4-(4-Carboxymethyl-phenoxy)-piperidine-1-carboxylic acid 4-(4-trifluoromethyl-phenoxy)-phenyl ester]
11	CC(C)(C)CCNC(=O)c1ccc(OC(=O)N2CCC(Oc3ccc(C(=O)O)cc3)CC2)cc1 [Example 105, 4-(4-Carboxy-phenoxy)-piperidine-1-carboxylic acid 4-(3,3-dimethyl-butylcarbamoyl)-phenyl ester]
20	O=C(O)Cc1cccc(OC2CCN(C(=O)Oc3ccc(Oc4ccc(C(F)(F)F)cn4)cc3)CC2)c1 [Example 110, 4-(3-Carboxymethyl-phenoxy)-piperidine-1-carboxylic acid 4-(5-trifluoromethyl-pyridin-2-yloxy)-phenyl ester]
14	O=C(O)CCc1cccc(OC2CCN(C(=O)Oc3ccc(Oc4ccc(C(F)(F)F)cn4)cc3)CC2)c1 [Example 112, 4-[3-(2-Carboxy-ethyl)-phenoxy]-piperidine-1-carboxylic acid 4-(5-trifluoromethyl-pyridin-2-yloxy)-phenyl ester]
8	O=C(O)Cc1ccc(OC2CCN(C(=O)Oc3ccc(Oc4ccc(Cl)cn4)cc3)CC2)cc1 [Example 117, 4-(4-Carboxymethyl-phenoxy)-piperidine-1-carboxylic acid 4-(5-chloro-pyridin-2-yloxy)-phenyl ester]
